In patent US6900033B2, “Methods and compositions for modulating ACE-2 activity” (Human Genome Sciences, Inc., priority 2001, dated 2005):
Several values for one entry are separate records, joined by “and”; a condition that tells them apart may be missing. Equal entries are not always repeated. Entries after “also recorded” stand apart in the source; their conditions may differ. One block for each compound: values may come before it. Positions of bridges follow the written chain, without caps; N, C: chain ends.

Key:
[1] = system: isolated aortic vascular rings; test: Developed isometric tension of isolated rat aortic vascular rings; conditions: for potentiation of angiotensin II-mediated vasoconstriction: peptide combined with angiotensin II
Text: The effects of graded doses of A1-9 (Fields et al., Peptide Research 4: 95-101 (1991)) or A1-10 (substrate control) alone or in combination (Tallarida, Drug Synergism and Dose-Effect Data Analysis, Chapman and Hall/CRC, New York (2000), Tallarida et al., Life Science 61: PL417-425 (1997)) with angiotensin II were examined on isolated aortic vascular rings developed tension in response to vasoactive substances. Aortas were removed from mature male Sprague-Dawley rats, cleared of connective tissue, and cut into 1 mm rings. Rings were mounted to an isometric force transducer and placed in Krebs-Henseleit solution bubbled with 95% 02/5% C02 at 37° C. Rings were exposed to a 2 g preload, relaxed and then exposed to various concentrations of angiotensin peptides alone or in combination. Following angiotensin peptide dosing, rings were fully constricted with KCl to determine the maximum degree of vasoconstriction.
The maximum tension developed by A1-9 was minimal and always less than that of angiotensin II.

[2] = system: awake, free-ranging Sprague-Dawley rats; test: Arterial pressure in awake, free-ranging Sprague-Dawley rats, intravenous infusion; format: in vivo, rat
Procedure: To investigate the effects of A1-9 on arterial pressure, A1-9 was administered to awake, free-ranging Sprague-Dawley rats via indwelling intravenous and arterial catheters. Intravenous infusion of A1-9 (1-3 μg/kg/min) in the awake rat produced a dose-dependent tonic increase in mean arterial pressure to a maximum of approximately 30 mmHg (FIG. 2). […] These responses seen with A1-9 were similar in magnitude to those induced by angiotensin II.
To examine any interactions induced by coadministration of A1-9 and angiotensin II, arterial pressure was monitored in the awake rat after they received either A1-9 (1 μg/kg/min) or saline coinfused with angiotensin 11 (1-100 ng/kg/min).

[3] = system: isolated rat aorta; conditions: literature (Oparil 1971); cited from earlier work
[4] = system: anesthetized rats; conditions: literature (Oparil 1971); cited from earlier work
[5] = system: anesthetized dogs; conditions: literature (Oparil 1971); cited from earlier work
[6] = biological target: T1, ACE-2 (Homo sapiens, UniProt Q9BYF1); test: Fluorometric ACE-2 inhibition assay with peptide M-2195 as substrate; format: biochemical; conditions: ACE-2 activity, M-2195 substrate, enzyme pre-incubated 30 minutes with inhibitor, 100 mM TRIS pH 7.4
T1 construct: nucleotides corresponding to the extracellular domain (M1-S740); FLAG; made in house; host or cells: Sf9 insect cells (recombinant baculovirus, transfer vector pA2); purified from conditioned media
Procedure: Assay mixture was prepared first by pre-incubating (30 minutes, room temperature) the enzyme with the inhibitor (0.45 μg ([…]) ACE-2, 0-0.5 μM inhibitor rage, up to 90 […] volume with 100 mM TRIS pH 7.4, 0.1% Tween-20, 0.4% DMSO) in each well, in triplicate, by dispensing volumes using a repeat pipetter (Rainin) into a 96-well clear-bottom back plate (Costar, 07-200-590). […] Substrate stock (10 μL of 10× concentration) was added to each well to be tested in blocks of three vertically down the plate. The reaction was monitored on a Spectrafluor Plus (Tecan) at an excitation wavelength of 340 nm and an emission wavelength of 400 nm (+/−35 nm) every 30 seconds for a time period of 10 minutes.
ACE-2 cleaves off the C-terminal lysine from the peptide with a concomitant increase in fluorescence signal.
The assays were performed in 96-well clear-bottom black plates (Costar, 07-200-590). In each well, 0.45 μg (5 pmoles) of ACE-2 is added to 90 μL of an assay solution containing 100 mM TRIS at pH 7.4, 0.1% Tween, and 0.4% DMSO. Substrate stock at 10 μL of 10× concentration is added to each well (for example, 10 μL of 1 mM stock for a final 100 μM concentration). The reaction was monitored on a Spectrafluor Plus (Tecan) at an excitation wavelength of 340 nm and an emission wavelength of 400 nm (+/−35 nm) every 30 seconds up to 10 minutes. All samples were measured in triplicate.

[7] = biological target: T1, ACE-2; conditions: literature (Donoghue 2000; Tipnis 2000); cited from earlier work
[8] = intravenous infusion 1-3 μg/kg/min, awake rat

T1 sequence (Q9BYF1 18-740): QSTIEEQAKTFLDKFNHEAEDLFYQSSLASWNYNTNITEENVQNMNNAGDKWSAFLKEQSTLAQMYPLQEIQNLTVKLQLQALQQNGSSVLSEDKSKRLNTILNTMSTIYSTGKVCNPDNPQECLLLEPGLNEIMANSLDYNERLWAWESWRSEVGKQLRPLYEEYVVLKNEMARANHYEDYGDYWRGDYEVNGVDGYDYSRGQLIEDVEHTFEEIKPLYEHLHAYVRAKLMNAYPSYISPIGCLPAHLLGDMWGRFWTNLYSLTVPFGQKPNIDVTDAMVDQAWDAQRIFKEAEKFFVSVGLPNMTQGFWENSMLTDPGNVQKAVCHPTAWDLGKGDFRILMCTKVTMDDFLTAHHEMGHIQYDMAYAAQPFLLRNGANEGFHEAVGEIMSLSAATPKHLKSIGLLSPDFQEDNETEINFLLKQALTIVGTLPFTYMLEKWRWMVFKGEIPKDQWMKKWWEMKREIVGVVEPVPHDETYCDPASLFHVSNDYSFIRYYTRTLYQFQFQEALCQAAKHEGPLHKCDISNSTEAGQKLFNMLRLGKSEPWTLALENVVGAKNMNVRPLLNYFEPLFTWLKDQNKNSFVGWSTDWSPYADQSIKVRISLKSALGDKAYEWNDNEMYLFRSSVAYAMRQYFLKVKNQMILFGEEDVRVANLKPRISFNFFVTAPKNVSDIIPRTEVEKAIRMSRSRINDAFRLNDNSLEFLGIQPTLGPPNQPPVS

Compound: des-Leu^10-angiotensin I (DRVYIHPFH; Angiotensin 1-9; UniProt P01019 25-33, looked up) [A1-9, nonapeptide formed by removal of the C-terminal leucine from angiotensin I]
- Al-9 % Max. Developed Force ([1]; Emax, A1-9 alone, 1-30 nM, mature rat aortic rings, % of KCl maximum, one value per experiment 1-5, listed as Al-9): 3.5% and 0% and 7.5% and 6.4% and 3.2%
- potentiation of angiotensin II-mediated vasoconstriction [1]: synergistic or supraadditive potentiation
- vasoconstrictor activity of the peptide alone ([1]; rat aortic rings): no effect on vascular tone; also recorded: virtually devoid of activity
- factor of increase of the relative potency of angiotensin II beyond simple additive potentiation ([1]; shift of angiotensin II dose-effect curve by A1-9, FIG. 1): 11.6 (95% confidence limits of 3.02-44.7)
- effect on the pressor response to angiotensin II ([2]; coinfused with angiotensin II 1-100 ng/kg/min, A1-9 at 1 μg/kg/min): potentiated the pressor response elicted by angiotensin II in an additive fashion
- heart rate [2, 8]: decreased in a dose-dependent manner
- maximum increase in mean arterial pressure [2, 8]: approximately 30 mmHg
- pulse pressure (systolic - diastolic) [2, 8]: elevated
- vasoconstrictor activity [3]: weak vasoconstrictor
- pressor activity [4]: weak pressor activity
- pressor activity [5]: weak pressor activity

- Inhibition [6]: −
Compound: Ac-AGVYFCFDWEQDCDEMGTEGGG-NH2 (disulfide 6-13 (inferred)) [DX-528]

- Inhibition [6]: −
Compound: Ac-GSDQNCFAMYCFEFAPGEGGG-NH2 (disulfide 6-11 (inferred)) [DX-503]

Compound: angiotensin I (DRVYIHPFHL; Angiotensin-1; UniProt P01019 25-34, looked up) [substrate control; the ACE and ACE-2 substrate]
- potentiation of angiotensin II-mediated vasoconstriction [1]: failed to potentiate

- Inhibition [6]: −
Compound: Ac-GDDDDCGWIGFANFHLCLHGDPEGGG-NH2 (disulfide 6-17 (inferred)) [DX-510]

Compound: C[C@H](CS)C(=O)N1CCC[C@H]1C(=O)O [captopril]
- block of ACE-2 conversion of angiotensin I to angiotensin 1-9 [7]: not blocked

- Inhibition [6]: −
Compound: Ac-AGWVLCFEWEDCDEKGTEGGG-NH2 (disulfide 6-12 (inferred)) [DX-527]

- Inhibition [6]: −
Compound: Ac-GSNDYCTVFTGALFCLDFAPEGGG-NH2 (disulfide 6-15 (inferred)) [DX-507]

- Inhibition [6]: −
Compound: Ac-GSLEMCEALFCVEFAPGEGGG-NH2 (disulfide 6-11 (inferred)) [DX-502]

- Inhibition [6]: −
Compound: Ac-AGEGNCFLIGPWCFEFGTEGGG-NH2 (disulfide 6-13 (inferred)) [DX-504]
